Measurements: EPA's ToxValDB 9.5

Key:
[1] = system: Oryctolagus sp.; details: dermal, New Zealand; for LD50: acute
[2] = system: Canidae; details: oral
[3] = system: Rattus norvegicus; details: for LC50 / LD50: acute
[4] = system: Mus musculus
[5] = system: Canidae; details: chronic; duration: 1 years; oral; diet; M/F; Dog Other; kidney and liver toxicity
[6] = system: Canidae; details: chronic; duration: 52 weeks; oral; diet; Dog Other; Kidney: Effects + Liver: Effects
[7] = system: Oryctolagus sp.; details: subchronic; inhalation; M; New Zealand White / Sprague-Dawley; testicular effects
[8] = system: Rattus norvegicus; details: subchronic, oral, drinking water, Fischer 344, Deaths + Clinical Observation: Tremors Diarrhea Emaciation Abnormal posture Pallor Tachypnea Comatose state + Body Weight Changes: decrease…
[9] = system: Mus musculus; details: uterotrophic; duration: 3 days; injection; intraperitoneal; Active
[10] = system: Cavia porcellus; details: acute; inhalation; Guinea Pig
[11] = system: Bird; details: oral, diet
[12] = chronic, duration: 118 weeks, oral, diet, F, Sprague-Dawley
[13] = chronic, duration: 118 weeks, oral, diet, M, Sprague-Dawley
[14] = developmental, duration: 20 days, oral, drinking water, Osborne-Mendel
[15] = reproduction developmental, duration: 27 weeks, oral, diet, Charles River Ceesarean albino, generation: F0
[16] = reproduction developmental, duration: 118 weeks, oral, diet, F, Sprague-Dawley
[17] = reproduction developmental, duration: 118 weeks, oral, diet, M, Sprague-Dawley
[18] = reproduction developmental, oral, diet, Crl:CD(SD)
[19] = reproduction developmental, duration: 21 days
[20] = subchronic, duration: 90 days, oral, diet, B6C3F1
[21] = reproduction developmental, duration: 10 days, oral, gavage, F, Crl:CD(SD)
[22] = reproduction developmental, duration: 28 days, oral, diet
[23] = subchronic, duration: 90 days, oral, diet, Sprague-Dawley

For `CC(C)(C)c1cc(CCC(=O)OCCSCCOC(=O)CCc2cc(C(C)(C)C)c(O)c(C(C)(C)C)c2)cc(C(C)(C)C)c1O`, the LD50 ([1]; occlusive) was over 3000 mg/kg, the NOAEL ([2]; subchronic, duration: 90 days, diet, Beagle) was 74 mg/kg-day and the LC50 ([3]; inhalation, whole body) was over 6300 mg/m3. It also gave an LD50 ([3]; oral, gavage) of over 5000 mg/kg, an NOAEL ([3]; chronic, duration: 93 days, oral, diet, F) of 4.5 mg/kg-day and an NOAEL ([3]; chronic, duration: 93 days, oral, diet, M) of 4.4 mg/kg-day. The NOAEL ([3]; subchronic, duration: 90 days, oral, diet) was 960 mg/kg-day.
For `COc1cc(S(=O)(=O)[O-])c(C)cc1N=Nc1c(O)ccc2cc(S(=O)(=O)[O-])ccc12.[Na+].[Na+]`, the “NOAEL (% diet)” value ([4]; chronic, duration: 104 weeks, oral, diet, CD1) was over 5.19, the LD50 ([2]; acute, gavage, Dog Other) was over 5000 mg/kg and the LD50 ([3]; oral, gavage, Sprague-Dawley) was over 10000 mg/kg. For the same molecule, the LOAEL [3, 12] was 3600 mg/kg-day, the NOAEL [3, 12] was 901 mg/kg-day and the LOAEL [3, 13] was over 2830 mg/kg-day. For the same molecule, the NOAEL [3, 13] was 2830 mg/kg-day, the NOAEL ([3]; developmental, duration: 19 days, oral, gavage, Osborne-Mendel) was 1000 mg/kg-day and the LOAEL [3, 14] was 546 mg/kg-day. The NOAEL [3, 14] was 274 mg/kg-day, the LOAEL [3, 15] was 51900 ppm and the NOAEL [3, 15] was 13900 ppm. For the same molecule, the LOAEL [3, 16] was 3600 mg/kg-day, the NOAEL [3, 16] was 901 mg/kg-day and the LOAEL [3, 17] was over 2830 mg/kg-day. It also gave an NOAEL [3, 17] of 2830 mg/kg-day, an NOAEL ([3]; reproduction developmental, duration: 19 days, oral, gavage, F, Osborne-Mendel) of 1000 mg/kg-day and an NOAEL ([3]; reproduction developmental, duration: 20 days, oral, drinking water, F, Osborne-Mendel) of 939 mg/kg-day. It also gave an LOAEL ([3]; reproduction developmental, duration: 20 days, oral, drinking water, Osborne-Mendel, generation: F1) of 546 mg/kg-day, an LOAEL [3, 18] of 51900 ppm and an NOAEL [3, 18] of 13900 ppm.
With `Cc1cc(Cl)ccc1OCC(=O)O` [2-(4-Chloro-2-methylphenoxy)acetic acid] the LEL [5] was 0.75 mg/kg-day, the NOEL [5] was 0.15 mg/kg-day and the NOEL [6] was 0.15 mg/kg-day.
In the case of `COCCO` [2-Methoxyethanol], the LOAEL [7] is reported as 311 mg/m3, the NOAEL [7] is reported as 93 mg/m3 and the NOEL ([8]; F) is reported as 70 mg/kg-day. It also gave an NOEL ([8]; M/F) of under 114 mg/kg-day.
Work on `CC(C)(c1cc(Br)c(O)c(Br)c1)c1cc(Br)c(O)c(Br)c1` [3,3',5,5'-Tetrabromobisphenol A] yielded an LEL [9] of 20 mg/kg-day, an LD50 [1] of over 2000 mg/kg and an LOAEL [1, 19] of over 2500 mg/kg-day. The NOAEL [1, 19] was 2500 mg/kg-day, the LC50 ([4]; acute, inhalation, NMDI) was over 50 mg/L and the LOAEL [4, 20] was 3070 mg/kg-day. For the same molecule, the NOAEL [4, 20] was 965 mg/kg-day, the LC50 [10] was over 50 mg/L and the LC50 ([3]; inhalation) was over 28200 mg/m3. It also gave an LC50 ([3]; inhalation, Wistar) of over 50 mg/L, an LD50 ([3]; oral, gavage, Sprague-Dawley) of over 5000 mg/kg and an NOAEL ([3]; developmental, duration: 19 days, oral, gavage) of 1000 mg/kg-day. For the same molecule, the LOAEL ([3]; developmental, duration: 19 days, oral, gavage, Wistar) was over 2500 mg/kg-day, the NOAEL ([3]; developmental, duration: 20 days, oral, Wistar) was 2500 mg/kg-day and the LOAEL [3, 21] was 5000 mg/kg-day. For the same molecule, the NOAEL [3, 21] was 3000 mg/kg-day, the LOAEL ([3]; reproduction developmental, duration: 14 days, inhalation) was 6 mg/L and the LOAEL ([3]; reproduction developmental, duration: 19 days, oral, gavage, F) was over 1000 mg/kg-day. It also gave an NOAEL ([3]; reproduction developmental, duration: 20 days, oral, gavage, F, Sprague-Dawley) of 1000 mg/kg-day, an LOAEC [3, 22] of over 1000 ppm and an NOAEL [3, 22] of at least 1000 ppm. For the same molecule, the LOAEL ([3]; reproduction developmental, oral, gavage, Sprague-Dawley, generation: F0) was 1000 mg/kg-day, the LOAEL [3, 23] was over 100 mg/kg-day and the NOAEL [3, 23] was over 100 mg/kg-day. It also gave an NOAEL ([3]; subchronic, duration: 90 days, oral, gavage, Sprague-Dawley) of 1000 mg/kg-day.
In the case of `Cc1cc(C(C)(C)c2ccc(O)c(C)c2)ccc1O` [3,3'-Dimethylbisphenol A], the NOEL ([11]; short-term, duration: 1 month, M, Chicken, body weight) is reported as 0.3%, the LOEL ([11]; short-term, duration: 1 month, M, Chicken, mortality) is reported as 0.3% and the NOEL ([11]; subchronic, duration: 12 week, M/F, White leghorn chicken, mortality) is reported as 0.3%. For the same molecule, the LOEL ([11]; subchronic, duration: 12 week, M, White leghorn chicken, body weight) was 0.3% and the NOEL ([11]; subchronic, duration: 12 week, M, White leghorn chicken, body weight + mortality) was 0.3%.
